One series has as its system rumen bacteria. In words: Bacterial viability in sheep after administering defaunation compounds. Note: key: Poor: reduction in gas; Okay: same as predosing levels; Good: increase relative to predosing levels. In kind it is in vivo. As to conditions: gas production one week after dosing vs pre-dosing.
A short description of series [1]: Wool growth in defaunated sheep. In kind it is in vivo. As to conditions: 167 mg/kg; for Response To Defaun: clean wool growth defaunated vs refaunated. As to the method:
Seven sheep each were defaunated using a dose rate of 167 mg/kg. Compounds were administered by first mixing with 20 ml of ethanol and then with 200 ml of centrifuged rumen liquor. This solution was then administered via a flexible stomach tube directly into the rumen. The sheep were fed with a ration of 90% oaten chaff and 10% Lucerne chaff at a rate of 1000 g per day. The sheep were maintained in a defaunated state by their isolation from faunated sheep to prevent the possibility of refaunation. The sheep were allowed to adjust for 3 weeks after administering the compound before any wool growth measurements were taken.
At the start of the wool growth measurement period, a 10 cm square area of wool was removed from both sides of the sheep. After four weeks the same area was reclipped and the wool retained for scouring at the end of the trial.
The sheep then had protozoa introduced back into their rumen and were allowed to adjust for three weeks. Similarly, during the second four week period, the wool was clipped from the same patch area. The wool harvested during the two four week trial periods was then scoured of wool wax and extraneous material and weighed.

Another series concerns mice. In words: Mouse safety assessment. The format is in vivo. As to conditions: oral gavage, 830, 415 and 217 mg/kg, observed for 2 days. The method, then:
Compounds of Table 1 chosen for testing in sheep were first tested in mice for signs of toxicity. Because sheep are approximately 5 times more sensitive than mice to compounds dosed orally, the dose rates applied to mice were 5 times greater than the target dose rate of 500 ppm. in rumen liquor (83 mg/kg live weight) used for sheep. Each compound was screened at three different dose levels, high (830 mg/kg), medium (415 mg/kg) and low (217 mg/kg).
252 mg of compound was used for dilution into a high medium and low dose rate. 252 mg of compound was mixed with 3 ml of G1284 solution (4% w/v ethoxylated castor oil and 0.05% w/v simethicone), to form the high dose composition. The medium dose composition was formed by diluting 1.5 ml of the high dose with 1.5 ml of G1284 solution. The low dose composition was formed by diluting 1.5 ml of the medium dose with 1.5 ml of G1284 solution. Before the high dose could be diluted it was first manually ball milled in an effort to produce a fine suspension of the compound.
All mice were weighed before dosing to calculate the appropriate dose rate. The calculation for dose rate was: [formula]
Each mouse was dosed using the Gavage method. With this method the mouse is dosed orally by way of an angled hypodermic needle (18 g) with a smooth spherical end. It is gently placed down the esophagus. All care must be taken not to force the needle and injure the esophagus or dose into the lungs.
Observations were made at 10, 30, 60 and 120 minutes after dosing, then every 1 or 2 hours for the first 6 hours.
Mice were usually observed for 2 days.
Typically, few compounds fell within the poor classification. The majority of compounds tested were either in the fair or good classification.

Series [2] in a line: Liveweight gain of growing lambs. As to conditions: 332 mg/kg. In kind it is in vivo, lambs (sheep). As to the method: (§1) Three cross-bred lambs were defaunated with compound 37 at dose rate of 332 mg per kg liveweight. The lambs were allowed four weeks to adapt to defaunation before commencing the trial. The lambs were grazed at pasture. Ten control (faunated) cohorts of the defaunated group, which were matched for liveweight, were grazed in the same paddock, but separated from the defaunated lambs by a double-fence (4 meter separation). This was to prevent the faunated lambs contaminating the defaunated lambs. Both groups of lambs were weighed on four occasions at three weekly intervals. Protozoa were also monitored at the same time.

The conditions of series [3]: The Pesticide Manual, 9th Ed. 1991; cited from earlier work.
Series [4] concerns protozoa. Description: Protozoal population number in growing lambs. In kind it is in vivo, lambs (sheep). The method, then:
as §1

The subject of the next series is rumen protozoa. In words: Defaunation using single or 2 or 3 repeated doses in sheep. The format is in vivo. As to conditions: individual sheep. As to the method: (§2) Sheep were fed a diet of 900 g oaten chaff daily, except that food and water were withheld for 19 hours before and 24 hours after dosing. Each dose was prepared by mixing compound 37 with 20 ml of ethanol followed by 200 ml of centrifuged rumen liquor, to give a dose of 167 mg/kg body weight, administered by rumen tube. Rumen protozoa were counted weekly following the final treatment.
Table 9: The effect of administering compound 37 (from table 1) on mean protozoal numbers in rumen in sheep.

In series [5] the test system is protozoa. Description: Reliability of defaunation using 2 repeated doses in sheep. The format is in vivo. As to conditions: Group 1, 2 doses, 4 weeks. As to the method: as §2
Sixty (60) Sheep, in three successive trials of 20 each, were treated with 2 doses of compound 37, one week apart, according to the method of Example 14. Protozoa were counted at 4 or 5 weeks after the second treatment.

Structures are written as SMILES. Values joined by “and” are separate entries in the source; they are usually repeats but may differ in a detail not shown here. Identical values can stand only once. Bounds are passed on as bounds.

`Cc1ccc(Nc2nc(Cl)nc(Cl)n2)cc1Cl` [Compound 27, 2,4 dichloro-6-(3 chloro-4-methylanilino)-s-triazine]: the “Bacterial Viability” value with rumen bacteria is reported as “Okay”. For the same compound, the “Response To Defaun” value in series [1] (sheep) is reported as 10.3. Moreover, the “Clean Wool Growth” value in series [1] (sheep, defaunated period, 4 weeks, per midside patch) is given as 1.753 g. For the same compound, the “Mouse Safety Assessment” value in the series on mice was “Fair (>2 mice sick)”.

For orientation: LD50 means the dose expected to kill half of the subjects tested. Take `Clc1nc(Cl)nc(Nc2ccccc2Cl)n1` [Compound 37, 2,4-dichloro-6-(2-chloroanilino)-1,3,5-triazine]: the “Bacterial Viability” value in the series on rumen bacteria was “Okay”. Further, the “Rate of liveweight gain (in words)” value in series [2] (over controls, P<0.01) is “highly significant improvement in the rate of liveweight gain”. For the same compound, the “ADG Increase” value in series [2] (relative to control) turned out to be 65%. The compound further displayed an ADG in series [2] (weeks 0-12) of 165 g/day. Besides, the “Clean Wool Growth” value in series [1] (672 h) came out at 1.773 g. Also, the “Response To Defaun” value in series [1] (sheep) came out at 8.9. The LD50 in series [3] is more than 4000 mg/kg. Further, the Protozoal numbers with protozoa [4] (week 0, 332 mg/kg) came out at 0 per mL × 10^3; in the series with protozoa [4] (week 3, 332 mg/kg), 0 per mL × 10^3; with protozoa [4] (week 6, 332 mg/kg), 0 per mL × 10^3; with protozoa [4] (week 9, 332 mg/kg), 0 per mL × 10^3; in the series with protozoa [4] (week 12, 332 mg/kg), 0 per mL × 10^3. Further, the “Protozoal Count” value is 64,000 number/mL of rumen fluid and 68,500 number/mL of rumen fluid and 94,000 number/mL of rumen fluid with rumen protozoa (2 doses 1 wk apart at 167 mg/kg/dose, week 0, 167 mg/kg); 0 number/mL of rumen fluid with rumen protozoa (2 doses 1 wk apart at 167 mg/kg/dose, week 1); 0 number/mL of rumen fluid in the series with rumen protozoa (2 doses 1 wk apart at 167 mg/kg/dose, week 2); 0 number/mL of rumen fluid in the series on rumen protozoa (2 doses 1 wk apart at 167 mg/kg/dose, week 3); 0 number/mL of rumen fluid with rumen protozoa (2 doses 1 wk apart at 167 mg/kg/dose, week 4); 259,000 number/mL of rumen fluid and 242,500 number/mL of rumen fluid and 122,500 number/mL of rumen fluid in the series with rumen protozoa (3 doses 1 wk apart at 167 mg/kg per dose, week 0, 167 mg/kg). Also, the “Protozoal Count” value is 0 number/mL of rumen fluid in the series with rumen protozoa (3 doses 1 wk apart at 167 mg/kg per dose, week 1); 0 number/mL of rumen fluid with rumen protozoa (3 doses 1 wk apart at 167 mg/kg per dose, week 2); 0 number/mL of rumen fluid in the series on rumen protozoa (3 doses 1 wk apart at 167 mg/kg per dose, week 3); 0 number/mL of rumen fluid in the series on rumen protozoa (3 doses 1 wk apart at 167 mg/kg per dose, week 4); 151,500 number/mL of rumen fluid and 300,000 number/mL of rumen fluid and 149,500 number/mL of rumen fluid in the series on rumen protozoa (single dose 167 mg/kg, week 0, 167 mg/kg); 0 number/mL of rumen fluid with rumen protozoa (single dose 167 mg/kg, week 1). Besides, the “Protozoal Count” value in the series with rumen protozoa (single dose 167 mg/kg, week 2, 167 mg/kg) was 370,000 number/mL of rumen fluid and 0 number/mL of rumen fluid and 4,500 number/mL of rumen fluid; in the series on rumen protozoa (single dose 167 mg/kg, week 3) it was 88,800 number/mL of rumen fluid. For the same compound, the “Residual protozoal population (in words)” value in the series with protozoa [5] is “one sheep had a residual protozoal population”.
